Test results as given in ChEMBL document CHEMBL3045426, “Synthesis, Antiviral and Antibacterial Activities of Isatin Mannich Bases” (Med Chem Res, 2005).
In brackets after ≈: the same amount, converted by molar mass.

Legend:
[1] = target: Human immunodeficiency virus type 1 reverse transcriptase (Human immunodeficiency virus 1, UniProt Q72547); experiment: Inhibition of Human immunodeficiency virus 1 RT using Poly(vC)oligo (dG) as template/primer after 30 min
Escherichia coli [2] = experiment: Ratio of ciproflaxacin ED50 to compound ED50 for Escherichia coli NCTC 10418 infected in po dosed CF mouse; assay type: functional
Salmonella typhimurium = experiment: Antimicrobial activity against Salmonella enterica subsp. enterica serovar Typhimurium after 18 to 20 hr by agar dilution method; assay type: functional
Pseudomonas aeruginosa = experiment: Antimicrobial activity against Pseudomonas aeruginosa after 18 to 20 hr by agar dilution method; assay type: functional
[3] = test system: Human immunodeficiency virus 1; experiment: Antiviral activity against Human immunodeficiency virus 1 IIIB infected MT4 cells assessed as inhibition of virus-induced cytopathicity after 5 days by MTT assay; assay type: functional, organism-based; conditions: MT4, 120 h
Vibrio cholerae [4] = experiment: Antimicrobial activity against Vibrio cholerae 0139 after 18 to 20 hr by agar dilution method; assay type: functional; conditions: 139
[5] = test system: Human immunodeficiency virus 1; experiment: Antiviral activity against Human immunodeficiency virus 1 IIIB infected CEM cells assessed as protection against viral infection after 6 days by XTT assay; assay type: functional, CCRF-CEM; set-up: concentration or dose not given beside the values
[6] = Cytotoxicity against Homo sapiens (human) HuH7 cells assessed as cell growth at 50 ug/ml after 3 days by Neutral red assay; assay type: cell-based, Huh-7; conditions: read-out: Activity
Salmonella typhi = experiment: Antimicrobial activity against Salmonella enterica subsp. enterica serovar Typhi after 18 to 20 hr by agar dilution method; assay type: functional
Vibrio fluvialis = experiment: Antimicrobial activity against Vibrio fluvialis after 18 to 20 hr by agar dilution method; assay type: functional
[7] = test system: Mycobacterium tuberculosis; experiment: Antimycobacterial activity against Mycobacterium tuberculosis H37Rv ATCC 27294; assay type: functional
Salmonella paratyphi = experiment: Antimicrobial activity against Salmonella enterica subsp. enterica serovar Paratyphi A after 18 to 20 hr by agar dilution method; assay type: functional
Plesiomonas = experiment: Antimicrobial activity against Plesiomonas after 18 to 20 hr by agar dilution method; assay type: functional
Vibrio mimicus = experiment: Antimicrobial activity against Vibrio mimicus after 18 to 20 hr by agar dilution method; assay type: functional
Shigella boydii = experiment: Antimicrobial activity against Shigella boydii after 18 to 20 hr by agar dilution method; assay type: functional
Escherichia coli [8] = experiment: Antimicrobial activity against Escherichia coli NCTC 10418 after 18 to 20 hr by agar dilution method; assay type: functional
Proteus mirabilis = experiment: Antimicrobial activity against Proteus mirabilis after 18 to 20 hr by agar dilution method; assay type: functional
Vibrio parahaemolyticus = experiment: Antimicrobial activity against Vibrio parahaemolyticus after 18 to 20 hr by agar dilution method; assay type: functional
Citrobacter freundii = experiment: Antimicrobial activity against Citrobacter freundii after 18 to 20 hr by agar dilution method; assay type: functional
[9] = test system: Mycobacterium tuberculosis; experiment: Antimycobacterial activity against Mycobacterium tuberculosis H37Rv ATCC 27294 at 6.25 ug/ml by MABA; assay type: functional
Staphylococcus aureus = experiment: Antimicrobial activity against Staphylococcus aureus after 18 to 20 hr by agar dilution method; assay type: functional
[10] = Cytotoxicity against Homo sapiens (human) MT4 cells after 5 days by MTT assay; assay type: cell-based
Morganella morganii = experiment: Antimicrobial activity against Morganella morganii after 18 to 20 hr by agar dilution method; assay type: functional
[11] = Selectivity index, ratio of CC50 for human MT4 cells to EC50 for HIV1 3B infected in MT4 cells; assay type: toxicity, cell-based; conditions: read-out: Ratio CC50/EC50
Proteus vulgaris = experiment: Antimicrobial activity against Proteus vulgaris after 18 to 20 hr by agar dilution method; assay type: functional
Klebsiella pneumoniae [12] = experiment: Antimicrobial activity against Klebsiella pneumoniae after 18 to 20 hr by agar dilution method; assay type: functional
Enterobacter = experiment: Antimicrobial activity against Enterobacter after 18 to 20 hr by agar dilution method; assay type: functional
Edwardsiella tarda = experiment: Antimicrobial activity against Edwardsiella tarda after 18 to 20 hr by agar dilution method; assay type: functional
Shigella sonnei = experiment: Antimicrobial activity against Shigella sonnei after 18 to 20 hr by agar dilution method; assay type: functional
Klebsiella pneumoniae [13] = experiment: Antimicrobial activity against Klebsiella pneumoniae subsp. ozaenae after 18 to 20 hr by agar dilution method; assay type: functional
Priestia megaterium = experiment: Antimicrobial activity against Bacillus megaterium after 18 to 20 hr by agar dilution method; assay type: functional
[14] = test system: Human immunodeficiency virus 1; experiment: Antiviral activity against Human immunodeficiency virus 1 IIIB infected MT4 cells assessed as protection against viral infection after 5 days by MTT assay; assay type: functional; set-up: concentration or dose not given beside the values
Salmonella enteritidis = experiment: Antimicrobial activity against Salmonella enterica subsp. enterica serovar Enteritidis after 18 to 20 hr by agar dilution method; assay type: functional
Vero = experiment: Cytotoxicity against Chlorocebus aethiops (African green monkey) Vero cells up to 62.5 ug/ml; assay type: cell-based; conditions: chlorocebus sabaeus
Vibrio cholerae [15] = experiment: Antimicrobial activity against Vibrio cholerae 01 after 18 to 20 hr by agar dilution method; assay type: functional; conditions: 1
Escherichia coli [16] = experiment: Antibacterial activity against Escherichia coli NCTC 10418 infected in po dosed CF mouse compound administered 1 hr prior and 4 hr post infection; assay type: functional; conditions: NCTC 10418, po
Hepatitis C virus = experiment: Antiviral activity against Hepatitis C virus BM4-5 infected in Huh7 cells assessed as inhibition of viral RNA replication by phosphor screening method; assay type: functional, Hepacivirus hominis, Huh-7
[17] = test system: Human immunodeficiency virus 1; experiment: Antiviral activity against Human immunodeficiency virus 1 IIIB infected CEM cells assessed as inhibition of virus-induced cytopathicity after 6 days by XTT assay; assay type: functional, organism-based; conditions: CCRF-CEM, 144 h
[18] = Cytotoxicity against Homo sapiens (human) CEM cells after 5 days by MTT assay; assay type: cell-based; conditions: CEM cells (CCRF-CEM)

Structure (SMILES)	MIC (Salmonella typhimurium) [µg/mL]	MIC (Pseudomonas aeruginosa) [µg/mL]	MIC (Vibrio cholerae [4]) [µg/mL]	Activity [5] [%]	MIC (Salmonella typhi) [µg/mL]	MIC (Vibrio fluvialis) [µg/mL]	MIC [7] [µg/mL]	MIC (Salmonella paratyphi) [µg/mL]	MIC (Plesiomonas) [µg/mL]	MIC (Vibrio mimicus) [µg/mL]	MIC (Shigella boydii) [µg/mL]	MIC (Escherichia coli [8]) [µg/mL]	MIC (Proteus mirabilis) [µg/mL]	MIC (Vibrio parahaemolyticus) [µg/mL]	MIC (Citrobacter freundii) [µg/mL]	inhibition at 6.25 µg/mL [9] [%]	MIC (Staphylococcus aureus) [µg/mL]	MIC (Morganella morganii) [µg/mL]	MIC (Proteus vulgaris) [µg/mL]	MIC (Klebsiella pneumoniae [12]) [µg/mL]	other results
COc1cc(Cc2cnc(/N=C3\C(=O)N(CN4CCN(c5cc6c(cc5F)c(=O)c(C(=O)O)cn6C5CC5)CC4)c4ccc(Cl)cc43)nc2N)cc(OC)c1OC	0.0047 (≈ 0.0059 µM)	1.22 (≈ 1.53 µM)	0.019 (≈ 0.0238 µM)	33.3	0.305 (≈ 0.383 µM)	0.0095 (≈ 0.0119 µM)	3.13 (≈ 3.93 µM)	0.153 (≈ 0.191 µM)	1.22 (≈ 1.53 µM)	0.0095 (≈ 0.0119 µM)	2.44 (≈ 3.06 µM)	0.0381 (≈ 0.0478 µM)	0.019 (≈ 0.0238 µM)	0.0763 (≈ 0.0957 µM)	1.22 (≈ 1.53 µM)	100	4.88 (≈ 6.12 µM)	1.22 (≈ 1.53 µM)	0.0095 (≈ 0.0119 µM)	0.31 (≈ 0.389 µM)	IC50 [1]: 18.4 µM; Ratio ED50 (Escherichia coli [2]): 2; EC50 [3]: 9.4 µg/mL (≈ 11.8 µM); viability at 72 h, 50 ug/ml [6]: 109%; CC50 at 120 h [10]: 187 µg/mL (≈ 234 µM); selectivity ratio [11]: > 19; MIC (Enterobacter): 0.0381 µg/mL (≈ 0.0478 µM); MIC (Edwardsiella tarda): 0.019 µg/mL (≈ 0.0238 µM); MIC (Shigella sonnei): 0.31 µg/mL (≈ 0.389 µM); MIC (Klebsiella pneumoniae [13]): 4.83 µg/mL (≈ 6.06 µM); MIC (Priestia megaterium): 0.019 µg/mL (≈ 0.0238 µM); Activity [14]: 101%; MIC (Salmonella enteritidis): 0.61 µg/mL (≈ 0.766 µM); Activity (Vero): Non-toxic; MIC (Vibrio cholerae [15]): 4.88 µg/mL (≈ 6.12 µM); ED50 (Escherichia coli [16]): 0.62 mg/kg; inhibition (INH) (Hepatitis C virus): 86%; EC50 [17]: > 200 µg/mL; CC50 at 120 h [18]: > 200 µg/mL
CCn1cc(C(=O)O)c(=O)c2cc(F)c(N3CCN(CN4C(=O)/C(=N\c5ncc(Cc6cc(OC)c(OC)c(OC)c6)c(N)n5)c5cc(Cl)ccc54)C(C)C3)c(F)c21 (stereo unspecified)	0.0381 (≈ 0.0466 µM)	0.153 (≈ 0.187 µM)	0.0381 (≈ 0.0466 µM)	48.3	0.019 (≈ 0.0232 µM)	0.019 (≈ 0.0232 µM)	1.56 (≈ 1.91 µM)	0.019 (≈ 0.0232 µM)	1.22 (≈ 1.49 µM)	0.0381 (≈ 0.0466 µM)	0.305 (≈ 0.373 µM)	0.153 (≈ 0.187 µM)	0.0763 (≈ 0.0934 µM)	0.0047 (≈ 0.00575 µM)	0.0047 (≈ 0.00575 µM)	100	0.0763 (≈ 0.0934 µM)	0.153 (≈ 0.187 µM)	0.153 (≈ 0.187 µM)	9.77 (≈ 11.9 µM)	EC50 [3]: 17.2 µg/mL (≈ 21 µM); viability at 72 h, 50 ug/ml [6]: 85%; CC50 at 120 h [10]: 36.9 µg/mL (≈ 45.2 µM); selectivity ratio [11]: 3; MIC (Enterobacter): 0.0095 µg/mL (≈ 0.0116 µM); MIC (Edwardsiella tarda): 0.0763 µg/mL (≈ 0.0934 µM); MIC (Shigella sonnei): 4.88 µg/mL (≈ 5.97 µM); MIC (Klebsiella pneumoniae [13]): 19.5 µg/mL (≈ 23.9 µM); MIC (Priestia megaterium): 0.019 µg/mL (≈ 0.0232 µM); Activity [14]: 89%; MIC (Salmonella enteritidis): 0.0095 µg/mL (≈ 0.0116 µM); Activity (Vero): Non-toxic; MIC (Vibrio cholerae [15]): 0.0095 µg/mL (≈ 0.0116 µM); ED50 (Escherichia coli [16]): 1.25 mg/kg; inhibition (INH) (Hepatitis C virus): 60%; EC50 [17]: > 18.7 µg/mL; CC50 at 120 h [18]: 18.7 µg/mL (≈ 22.9 µM)
COc1cc(Cc2cnc(/N=C3\C(=O)N(CN4CCN(c5c(F)cc6c(=O)c(C(=O)O)cn(C7CC7)c6c5F)CC4C)c4ccc(Cl)cc43)nc2N)cc(OC)c1OC (stereo unspecified)	0.0381 (≈ 0.0459 µM)	0.019 (≈ 0.0229 µM)	0.153 (≈ 0.184 µM)	20.04	0.019 (≈ 0.0229 µM)	0.019 (≈ 0.0229 µM)	3.13 (≈ 3.77 µM)	0.153 (≈ 0.184 µM)	0.0381 (≈ 0.0459 µM)	0.019 (≈ 0.0229 µM)	0.0381 (≈ 0.0459 µM)	0.0763 (≈ 0.092 µM)	0.0763 (≈ 0.092 µM)	0.0763 (≈ 0.092 µM)	0.0095 (≈ 0.0115 µM)	100	0.019 (≈ 0.0229 µM)	0.0381 (≈ 0.0459 µM)	0.0763 (≈ 0.092 µM)	2.44 (≈ 2.94 µM)	MIC (Enterobacter): 0.019 µg/mL (≈ 0.0229 µM); MIC (Edwardsiella tarda): 0.0763 µg/mL (≈ 0.092 µM); MIC (Shigella sonnei): 0.152 µg/mL (≈ 0.183 µM); MIC (Klebsiella pneumoniae [13]): 0.0381 µg/mL (≈ 0.0459 µM); MIC (Priestia megaterium): 0.019 µg/mL (≈ 0.0229 µM); MIC (Salmonella enteritidis): 0.019 µg/mL (≈ 0.0229 µM); Activity (Vero): Non-toxic; MIC (Vibrio cholerae [15]): 0.61 µg/mL (≈ 0.736 µM); EC50 [17]: > 67 µg/mL; CC50 at 120 h [18]: 67 µg/mL (≈ 80.8 µM)
